# From patent US7652038B2, “Methods of reducing angiogenesis” (The Board of Trustees of the Leland Stanford Jr. University, priority 2002, dated 2010)
# What was measured:
# C57BL/6J mice [1] = assay: Disc angiogenesis system; type: in vivo; settings: for crosssectional area of the disc covered with new vessels (neovascularization of the disc): systemic treatment via osmotic minipumps, median, control 54.9%
# Experimental: Disc Angiogenesis System. A disc of polyvinyl alcohol sponge (Rippey, El Dorado Hills, Calif.), covered with nitrocellulose cell-impermeable filters (Millipore, Burlington, Mass.), allows capillaries to grow only through the rim of the disc. The randomized treatment for the 2-week study period was delivered via osmotic minipumps (0.25 μl/hr; Durect, Cupertino, Calif.). Those discs were subcutaneously implanted in the back of 10-week old C57BL/6J mice or in some experiments in the back of α7-nAChR-deficient (B6.129S7-Chrna7^trn1Bay) mice (n=6 per group; Jackson, Bar Harbor, Me.). Two weeks later, mice were anesthetized and infused with space-filling fluorescent microspheres (0.2 μm, Molecular Probes, Eugene, Oreg.) through the left ventricle of the heart. Both the area of the disc covered with perfused vessels and the vessel density were quantified. Heeschen et al. (2001) Nat Med 7:833-837; and Jang et al. (2000) Circulation 102:1414-1419 (3, 10) The α7-nAChR in growing vessels were identified by immunohistochemistry (Santa Cruz Biotechnology, Santa Cruz, Calif.). To verify the specificity of the staining, discs explanted from homozygous α7-nAChR^−/− mice were used as a negative control.
# To determine if the nAChR are involved in the native angiogenesic response in vivo, we used the disc angiogenesis system. In the control group, 54.9% (95% CI 46.1-63.6) of the crosssectional area of the disc was covered with new vessels when the disc was removed three weeks after subcutaneous implantation. FIG. 1.
# HMVECs and HUVECs = assay: In vitro Matrigel assay (capillary network / tube formation); type: cell-based, human
# Experimental: In Vitro Matrigel Assay. Human umbilical vein endothelial cells (HUVEC) and human microvascular endothelial cells (HMVEC; up to 5th passage; Bio Whittaker, Walkersville, Md.) were grown in EGM-MV supplemented with 5% FBS, 0.5 ml hEGF, 0.2 ml hydrocortisone, 2.0 ml BBE, and 0.5 ml GA-1000 (Bio Whittaker). Four-well chamber slides were coated with growth factor enhanced Matrigel (Becton Dickinson, Bedford, Mass.) and equilibrated with basal medium. Kureishi et al. (2000) Nat Med 6:1004-1010. Cells were seeded on top of the gel at a density of 10^3 cells/well in fresh basal medium containing 5% FBS. After two hours, increasing concentrations of mecamylamine (10^−12 to 10^−4 M; Sigma, St. Louis, Mont.) or vehicle were added to the medium. Development of tube formation in the center of each well was investigated at 24, 48, and 72 hours. We studied critical steps in angiogenesis, such as migration and differentiation, using an in vitro model of angiogenesis with ECs forming a network of capillary-like structures. After seeding the cells on growth factor-enriched matrigel, HMVECs and HUVECs, respectively, manifested tube formation within 48 hours in response to control medium.
# C57BL/6J mice [2] = assay: Murine model of hind limb ischemia; type: in vivo; settings: for median diameter of collateral vessels / number of collateral vessels: ischemic limb; for median diameter of collateral vessels: control 0.12 mm; for number of collateral vessels: control 7.5
# Experimental: Murine Model of Hind Limb Ischemia. In 10-week old C57BL/6J mice, the distal end of the external iliac artery and the deep and superficial femoral artery were ligated (n=8 animals per group). Mecamylamine was administered for three weeks by daily intramuscular injection. Serum VEGF levels were determined with a mouse VEGF ELISA kit (R&D System, Minneapolis, Minn.). Capillary density was determined in the adductor and semimembranous muscles. In 10 μm cryostat sections, cut transverse to the mid-belly of the muscle, capillaries were identified by monoclonal antibodies against CD31 (BD PharMingen, San Diego, Calif.) and myocytes were counterstained with eosin (Sigma). Capillary density for each section was determined in ten randomly selected fields and is expressed as a ratio of capillaries to myocytes.
# To determine if nAChR play an important role in the setting of angiogenesis in response to ischemia, we employed the murine model of hind limb ischemia. After unilateral ligation of the superficial and deep femoral artery, we administered mecamylamine or vehicle by intramuscular injections into the ischemic hind limb on a daily basis for a period of three weeks. Animals (each group n=8) received 0, 0.05, or 0.5 μg/kg of mecamylamine. […] We achieved similar results when we administered mecamylamine systemically via osmotic minipumps (5.0 μg/kg; 0.24 (95% CI 0.19-0.28); P<0.001).
# Accordingly, we identified collaterals by double staining for CD31 (ECs) and α-actin (SMCs) using confocal microscopy. The number of collaterals was quantified on cross-sections by identifying vascular lumen lined by CD31-positive endothelium, that were coated by an actin-positive vascular smooth muscle wall, with vessel diameters of at least 0.02 mm.
# CD34+/Flk-1+ cells = assay: FACS of endothelial progenitor cells in hind limb ischemia model; type: in vivo, mice; settings: systemic administration
# Experimental: FACS. Fluorescence-activated cell sorting was used to identify the cellular population mobilized by ischemia and ischemia plus mecamylamine, respectively. At each time point (baseline, 3, 7, 14 days), blood was obtained from the right atrium. Bone marrow was isolated from bilateral femurs and tibias of each animal and incubated in HBSS (1% FCS) on ice. Peripheral blood and bone marrow cells were incubated with fluorescent-labeled antibodies and analyzed with a FACS-Vantage flow cytometer (Becton Dickinson, Franklin Lakes, N.J.). FITC-conjugated antibody against mouse CD34 and PE-conjugated antibody against mouse Flk-1 (BD PharMingen, San Diego, Calif.) were used as endothelial lineage markers. The analysis of CD34+ and Flk-1+ cells was performed after gating for monocyte size. Biotinylated antibodies against MAC-1 (BD PharMingen) conjugated to Avidin-Texas Red (BD PharMingen) were used as a monocyte/macrophage lineage marker after gating for monocyte cell size with the exclusion of granulocytes that were marked by Ly-6G GR-1 against mouse conjugated to APC (BD PharMingen). […] Data were analyzed using FloJo software (Becton Dickinson).
# Table 1 presents the data, expressed as percentage of endothelial progenitor cells in bone marrow (BM) and peripheral blood (PB) before and after ligation of the femoral artery in the murine model of hind limb ischemia.
# [3] = system: Lewis lung carcinoma cells; assay: Lewis lung tumor model, subcutaneous; type: in vivo, mice
# Experimental: (§1) Lewis Lung Tumor Model. A total of 10^6 Lewis lung carcinoma cells (ATCC, Manassas, Va.) were cultured in RPMI 1640 supplemented with 10% FBS. Cancer cells were subcutaneously injected into each flank or orthotopically introduced into the lung parenchyma via a limited skin incision without thoracotomy of 10-week old C57BL/6J wild type mice. Animals received mecamylamine (3 mg/kg) or vehicle via osmotic mini pumps. Mice injected subcutaneously with tumor cells were checked on a daily basis for the presence of a palpable tumor and tumor growth was measured with a gauge. Tumor size was calculated as the product of length×width×0.5 cm^3. When mice in any group were bearing tumors>1.5 cm^3, the experiment was stopped and all animals sacrificed for histological evaluation. Tumor vessels were identified by infusion of space-filling fluorescent microspheres (0.2 μm; Molecular Probes) via the left ventricle of the heart.
# (§2) The previous studies indicate that nAChR play an important role in angiogenesis in a broad spectrum of experimental conditions. To determine if mecamylamine could influence tumor angiogenesis, we used the in vivo Lewis lung cancer model. […] This late decrease in tumor growth in the mecamylamine group corresponded with a reduced vascularization of the tumor tissue. […] In another experiment, we orthotopically implanted Lewis lung cancer cells into the lung parenchyma. Larger tumors in the control group required discontinuation of the experiment after 17 days (tumor volume of 0.62 cm^3 (95% CI 0.37-0.85) versus 0.45 cm^3 (95% CI 0.28-0.66); P<0.001).
# [4] = system: Lewis lung carcinoma cells; assay: Lewis lung tumor model, orthotopic implantation into lung parenchyma; type: in vivo, mice
# Experimental: as §1, §2
# Lewis lung cancer cells = assay: Cell culture of Lewis lung cancer cells: proliferation and apoptosis during hypoxia; type: cell-based
# Description: In subsequent cell culture experiments, we investigated whether this reduced tumor growth may also be related to a direct anti-proliferative effect of mecamylamine on the cancer cells. […] We also investigated the effects of increasing mecamylamine concentrations on the percentage of cells undergoing apoptosis during hypoxia using flow cytometry.
compound,measurement,setting,value
C[N+](C)(C)CCCCCC[N+](C)(C)C [hexamethonium],crosssectional area of the disc covered with new vessels (neovascularization of the disc),C57BL/6J mice [1],11.5%
CNC1(C)C2CCC(C2)C1(C)C (stereo not shown) [mecamylamine],reversibility of effect on network formation,"HMVECs and HUVECs; 10^−6 M, treatment stopped after 36 hours, network-like structures at 72 hours",reversible
same,network formation (tube formation),"HMVECs and HUVECs; medium supplemented with 10^−4 to 10^−12 M, growth factor-enriched matrigel",network formation was inhibited
same,angiogenesis in vivo (FIG. 1),C57BL/6J mice [1]; disc angiogenesis system,inhibits angiogenesis in vivo
same,crosssectional area of the disc covered with new vessels (neovascularization of the disc),C57BL/6J mice [1],14.3%
same,capillary density (angiogenic response),"C57BL/6J mice [2]; 0.5 μg/kg daily intramuscular injection into ischemic hind limb, 3 weeks, control 0.45",0.26 capillaries/myocyte
same,median diameter of collateral vessels,C57BL/6J mice [2]; high dose,0.07 mm
same,number of collateral vessels,C57BL/6J mice [2]; high dose,6.2
same,median diameter of collateral vessels,C57BL/6J mice [2]; low dose,0.09 mm
same,number of collateral vessels,C57BL/6J mice [2]; low dose,7.1
same,capillary density compared to control (FIG. 3),C57BL/6J mice [2]; murine model of hind limb ischemia,decreased capillary density in a dose-dependent fashion
same,capillary density (angiogenic response),"C57BL/6J mice [2]; systemically via osmotic minipumps, 5.0 μg/kg",0.24 capillaries/myocyte
same,number of CD34+/Flk-1+ cells in the bone marrow,CD34+/Flk-1+ cells,reduced the number of CD34^+/Flk-1^+ cells in the bone marrow
same,tumor growth (tumor size),"[3]; 21-day follow-up, control 1.21",0.85 cm^3
same,advanced tumor growth (FIG. 5),[3]; Lewis Lung tumor model,significantly less tumor growth
same,capillary density of tumor tissue,"[3]; subcutaneous tumor, control 0.82",0.56 capillaries/mm^2
same,systemic levels of VEGF,"[4]; Lewis lung cancer model, control 152.2",78.7 pg/mL
same,tumor volume,"[4]; orthotopic, after 17 days, control 0.62",0.45 cm^3
same,tumor vascularization,"[4]; orthotopic, control 1.56",0.98 capillaries/mm^2
same,cells positive for Annexin V,"Lewis lung cancer cells; 10^−6 M during hypoxia, control 13%",12%
same,percentage of cells undergoing apoptosis during hypoxia,"Lewis lung cancer cells; increasing concentrations, flow cytometry, versus control group",no difference was observed
same,number of Lewis lung cancer cells (direct anti-proliferative effect),Lewis lung cancer cells; up to 48 hours of treatment,did not observe a significant change
